Measurements as given in patent US9999218B2, “Pest control formulations and methods of making and using same” (0903608 B.C. Ltd., priority 2011, dated 2018).
Read-outs that look alike come from different tables or passages of the source.

Tests used:
bed bug eggs [1] = format: in vivo, Cimex lectularius L.
Text: Immediately after infestation, and at 1-, 2-, and 3-week intervals thereafter, the numbers of hatched and unhatched eggs present in the sealed dishes were counted and compared to other Treated Groups. One egg was counted as “hatched” for every new nymph present in the petri dish when compared with the prior interval. Table 13 compares the % egg eclosion of the treated groups at the 3-week observation interval. The maximum mortality data obtained in Example 3, above, are included for comparison purposes.

adult bed bugs [2] = format: in vivo
adult bed bugs [3] = settings: […] neem oil + […] named solvent in isopropanol, 4 h dried in highly-ventilated room; for Max. Mortality: observed until 14 days
Experimental: This example illustrates the dry residual pesticidal activity of formulations including neem oil and various organic solvents including alcohols, ketones, esters and carboxylic acids. […] The percent by weight of each solvent was varied to ensure a consistent molar quantity of solvent in each solution. Treated Groups for each solution were prepared by treating filter paper, 90 mm in diameter, with 1.0 mL of solution and allowing it to air dry for four hours in a highly-ventilated room. A known number of adults were added to each treated dish, four hours after treatment. Bed bug mortality was assessed immediately after infestation and at 1-hour, 2-hour, 4-hour, 6-hour, 8-hour, 10-hour, 12-hour, and 24-hour intervals, and at 24-hour intervals thereafter until 14 days after infestation. Adult bed bugs were counted dead if they were unresponsive when stimulated.

bed bug eggs [4] = assay: Prevention of egg emergence by various pesticidal natural oils (Example 11); format: in vivo, Cimex lectularius L.; settings: […] by weight oil with 5.0% acetophenone; all observation intervals
Experimental: Five bed bug eggs were added to each treated dish, two hours after treatment. Immediately after infestation, and at 1-, 2-, and 3-week intervals thereafter, the numbers of hatched and unhatched eggs present in the sealed dishes were counted and compared to other Treated Groups. One egg was counted as “hatched” for every new nymph present in the petri dish when compared with the prior interval. Table 12 compares the mean % egg eclosion of the treated groups at three weeks post-infestation. The maximum mortality data obtained in Example 2, above, are included for each formulation, for comparison purposes.

adult bed bugs [5] = settings: in vivo
Experimental: This example illustrates the dry residual pesticidal activity of formulations comprising further pesticidal natural oils (thyme, garlic and neem oils) with acetophenone as the polar aromatic solvent. Solutions were prepared using 5.5% by weight natural oil; the percentage by weight of organic solvent indicated in Table 20 and an appropriate amount of isopropanol as a carrier diluent. Solvent was added to a final concentration of 1.5 mol/kg. Solutions were also prepared of each natural oil alone (5.5% by weight with an appropriate amount of isopropanol as a carrier diluent), and of the polar organic solvent alone (the percent by weight indicated in Table 20 with an appropriate amount of isopropanol as a carrier diluent). Treated Groups for each solution were prepared by treating filter paper, 90 mm in diameter, with 1.0 mL of solution and allowing it to air dry for four hours. A known number of adults (usually 10) were added to each treated dish, four hours after treatment. Bed bug mortality was assessed immediately after infestation and at 1-hour, 2-hour, 4-hour, 6-hour, 8-hour, 10 hour, 12-hour, and 24-hour intervals, and at 24-hour intervals thereafter until 14 days after infestation. Adult bed bugs were counted dead if they were unresponsive when stimulated.

[6] = […] neem oil + named solvent in isopropanol, 4 h dried residue, 3 weeks after infestation
[7] = […] neem oil + […] named solvent in isopropanol, 4 h dried residue
[8] = […] neem oil + […] named solvent in isopropanol, 4 h dried residue, observed until 14 days

Compound | % Eclosion (bed bug eggs [1]; [6]) | Time to Max Mortality (adult bed bugs [2]; [7]) | Max. Mortality (adult bed bugs [2]; [8]) | Time to Max Mortality (adult bed bugs [3]) | Max. Mortality (adult bed bugs [3]) | also measured
CC(O)c1ccccc1 (stereo not shown) [1-Phenylethanol] | 0% | 24 h | 100% |  |  | 
O=C(c1ccc(O)cc1O)c1ccc(O)cc1O [2,2′-4,4′ Tetrahydroxybenzophenone] | 0% | 24 h | 100% |  |  | 
CC(C)CC(O)CC(C)C [2,6-Dimethyl-4-heptanol] |  |  |  | 14 days | 20% | 
CCCCCCC(CO)CCCC (stereo not shown) [2-Butyl-1-octanol] |  |  |  | 8 days | 100% | 
CCCCC(CC)CO (stereo not shown) [2-Ethyl-1-hexanol] | 0% |  |  |  |  | Max. Mortality (adult bed bugs [2]; in vivo): 100%; Time to Max Mortality (adult bed bugs [2]; in vivo): 72 h
CC(C)(O)c1ccccc1 [2-Phenyl-2-propanol] |  |  |  | 1 days | 100% | 
CC(C)O [2-Propanol (IPA), 2-Propanol] |  | 140 h | 40% |  |  | 
CCCCCCCCC(CO)CCCCCC (stereo not shown) [2-hexyl-1-decanol] |  |  |  | 14 days | 100% | 
Cc1ccc(O)c(C=O)c1 [2-hydroxy-5-methyl benzaldehyde] |  |  |  | 1 days | 100% | 
CC(=O)OC1CCCCC1C(C)(C)C (stereo not shown) [2-tert-Butylcyclohexylacetate] | 20% | 96 h | 100% |  |  | 
CC(=O)c1ccc(C)cc1C [2′,4′-Dimethylacetophenone] | 0% | 24 h | 100% |  |  | 
CC(=O)c1ccccc1O [2′-Hydroxyacetophenone] |  |  |  | 1 days | 100% | 
Cc1ccc(CO)cc1C [3,4-dimethylbenzyl alcohol] |  |  |  | 14 days | 100% | 
CC(=O)c1ccc(C)c(C)c1 [3′,4′-Dimethylacetophenone] | 0% | 48 h | 100% |  |  | 
O=C(O)c1ccc(O)cc1 [4-Hydroxy benzoic acid] |  |  |  | 1 days | 100% | 
Cc1cc(C(=O)O)ccc1O [4-Hydroxy-3-methyl benzoic acid] |  |  |  | 14 days | 60% | 
CC(=O)c1ccc(O)cc1 [4′-Hydroxyacetophenone] |  |  |  | 9 days | 50% | 
CCCCC(=O)c1ccc(O)cc1 [4′-Hydroxyvalerophenone] |  |  |  | 14 days | 70% | 
CC(=O)c1ccc(C)cc1 [4′-Methylacetophenone] | 0% | 48 h | 100% |  |  | 
CCC(=O)c1ccc(C)cc1 [4′-Methylpropiophenone] | 0% | 24 h | 100% |  |  | 

Compound | % Eclosion (bed bug eggs [1]; [6]) | Time to Max Mortality (adult bed bugs [2]; [7]) | Max. Mortality (adult bed bugs [2]; [8]) | Time to Max Mortality (adult bed bugs [3]) | Max. Mortality (adult bed bugs [3]) | also measured
Cc1ccc(C(C)O)cc1 (stereo not drawn) [Alpha-4-dimethylbenzyl alcohol] |  |  |  | 1 days | 100% | 
O=Cc1ccccc1 [Benzaldehyde] | 0% | 336 h | 100% |  |  | 
c1ccccc1 [Benzene] |  |  |  | 14 days | 40% | 
O=C(O)c1ccccc1 [Benzoic acid] | 0% |  |  |  |  | Max. Mortality (adult bed bugs [2]; in vivo): 100%; Time to Max Mortality (adult bed bugs [2]; in vivo): 48 h
OCc1ccccc1 [Benzyl alcohol] | 0% | 24 h | 100% |  |  | 
O=C(OCc1ccccc1)c1ccccc1 [Benzyl benzoate] |  |  |  | 8 days | 100% | 
COCc1ccccc1 [Benzyl methyl ether] |  |  |  | 8 days | 60% | 
CCCCOc1ccccc1 [Butyl phenyl ether] |  |  |  | 6 days | 100% | 
CCCC(=O)c1ccccc1 [Butyrophenone] | 0% | 24 h | 100% |  |  | 
OC1CCCCC1 [Cyclohexanol] | 60% | 336 h | 60% |  |  | 
O=C1CCCCC1 [Cyclohexanone] | 40% | 240 h | 50% |  |  | 
O=C(c1ccccc1)C1CCCCC1 [Cyclohexyl phenyl ketone] |  |  |  | 8 days | 90% | 
c1ccc(COCc2ccccc2)cc1 [Dibenzyl ether] |  |  |  | 7 days | 90% | 
c1ccc(Oc2ccccc2)cc1 [Diphenyl ether] |  |  |  | 3 days | 100% | 
CCOC(C)=O [Ethyl acetate] | 100% | 336 h | 30% |  |  | 
CCOC(=O)c1ccccc1 [Ethyl benzoate] |  |  |  | 2 days | 100% | 
CCCCCC(=O)c1ccccc1 [Hexanophenone] | 0% | 140 h | 100% |  |  | 
CC(C)COC(=O)c1ccccc1 [Isobutyl benzoate] |  |  |  | 8 days | 90% | 
CC(C)C(=O)c1ccccc1 [Isobutyrophenone] | 0% | 48 h | 100% |  |  | 
CC(=O)C1CCCCC1 [Methylcyclohexylketone] | 80% | 264 h | 70% |  |  | 

Compound | % Eclosion (bed bug eggs [1]; [6]) | Time to Max Mortality (adult bed bugs [2]; [7]) | Max. Mortality (adult bed bugs [2]; [8]) | Time to Max Mortality (adult bed bugs [3]) | Max. Mortality (adult bed bugs [3]) | also measured
Oc1ccccc1 [Phenol] |  |  |  | 1 days | 100% | 
CCC(=O)c1ccccc1 [Propiophenone] | 0% | 24 h | 100% |  |  | 
CCCOC(=O)c1ccc(O)cc1 [Propyl-4-hydroxybenzoate] | 0% | 24 h | 100% |  |  | 
CCCCO [Solution 1-Butanol, 1-Butanol] |  |  |  |  |  | % Eclosion (bed bug eggs [1]; in vivo): 100%; Max. Mortality (adult bed bugs [2]; in vivo): 40%; Time to Max Mortality (adult bed bugs [2]; in vivo): 190 h
CCCCCCCCCCO [Solution 1-Decanol, 1-Decanol] | 0% |  |  |  |  | Max. Mortality (adult bed bugs [2]; in vivo): 100%; Time to Max Mortality (adult bed bugs [2]; in vivo): 264 h
CCCCCCO [Solution 1-Hexanol, 1-Hexanol] | 0% |  |  |  |  | Max. Mortality (adult bed bugs [2]; in vivo): 40%; Time to Max Mortality (adult bed bugs [2]; in vivo): 336 h
CCCCCCCCCO [Solution 1-Nonanol, 1-Nonanol] |  |  |  | 2 days | 100% | 
CCCCCCCCCCCCO [Solution 1-dodecanol, 1-dodecanol] |  |  |  | 14 days | 90% | 
CCC(C)O (stereo not shown) [Solution 2-Butanol, 2-Butanol] |  |  |  |  |  | % Eclosion (bed bug eggs [1]; in vivo): 100%; Max. Mortality (adult bed bugs [2]; in vivo): 20%; Time to Max Mortality (adult bed bugs [2]; in vivo): 336 h
CCCCCCC(C)O (stereo not shown) [Solution 2-Octanol, 2-Octanol] |  |  |  | 2 days | 100% | 
CCCCC(O)CC (stereo not shown) [Solution 3-Heptanol, 3-Heptanol] |  |  |  | 14 days | 30% | 
Cc1ccccc1 [Toluene] |  |  |  | 14 days | 50% | 
C/C=C/c1ccc(OC)cc1 [Trans-anethole] |  |  |  | 5 days | 100% | 
CCCCC(=O)c1ccccc1 [Valerophenone] | 0% | 24 h | 100% |  |  | 
CC(C)=CCC/C(C)=C/CO [geraniol] |  |  |  |  |  | prevention of egg eclosion (bed bug eggs [4]): complete prevention of egg eclosion
Cc1ccc(C=O)cc1 [p-Tolualdehyde] |  |  |  | 6 days | 50% | 
Cc1ccc(C)cc1 [p-Xylene] |  |  |  | 14 days | 30% | 
Neem Oil |  |  |  |  |  | Max Mortality (adult bed bugs [5]): 10%
